# Results published in ChEMBL document CHEMBL3508140 (2016).
# How the values were obtained:
# Albumin = Albumin (Homo sapiens, UniProt P02768); assay: Binding of doxorubicin to albumin; assay type: cell-free; conditions: read-out: Plasma protein binding (converted)
# [1] = AUC values (0-48 h) of doxorubicin in tumor following single intravenous doxorubicin at 10 mg.Kg-1 dose in female mouse bearing colon tumor; assay type: ADME, organism-based, BALB/c, Neoplasm; parameters: time < 48 hr, dose 10 mg.Kg-1, dosed compound id 2.46809e+06, dosed compound name Doxorubicin, gender F, regimen Single, route intravenous, sampling time 48 h; conditions: in vivo
# [2] = Incidence of leukocyturia following reference intravenous doxorubicin at 1 mg.Kg-1 per week in rat; assay type: toxicity, organism-based, SD; parameters: dose 1 mg.Kg-1, dosed compound id 2.46809e+06, dosed compound name Doxorubicin, dose level High, gender Mixed, regimen Once per week, route intravenous, sampling time 36 Week, study doses 0/0.3/0.6/1 mg.Kg-1; conditions: in vivo
# [3] = Volume of distribution at steady state following doxorubicin at 60 mg.m-2 dose in patients with cancer; assay type: ADME, organism-based; parameters: dose 60 mg.m-2, dosed compound id 2.46809e+06, dosed compound name Doxorubicin; conditions: human, plasma, read-out: Vss
# [4] = Mean plasma clearance of doxorubicin following intravenous doxorubicin at 60 mg.m-2 dose in cancer patients; assay type: ADME, organism-based; conditions: human, read-out: CLp (converted)
# Homo sapiens = species on record: Homo sapiens; assay: Binding of doxorubicin to plasma protein of human; assay type: cell-free
# [5] = Plasma clearance of adriamycin following intravenous adriamycin at 1.27 mg.Kg-1 dose in dog; assay type: ADME, organism-based, Canis lupus familiaris; parameters: dose 1.27 mg.Kg-1, dosed compound id 2.46809e+06, dosed compound name Doxorubicin, route intravenous; conditions: Beagle, read-out: Clp
# [6] = Percentage of doxorubicin excreted unchanged in urine following doxorubicin at 60 mg.m-2 dose in cancer patients; assay type: ADME, organism-based; parameters: dose 60 mg.m-2, dosed compound id 2.46809e+06, dosed compound name Doxorubicin; conditions: human, at 60 mg/m2, read-out: Compound recovery
# [7] = Increase in serum phospholipid level following reference intravenous doxorubicin at 1 mg.Kg-1 per week in rat; assay type: toxicity, organism-based, SD; parameters: dose 1 mg.Kg-1, dosed compound id 2.46809e+06, dosed compound name Doxorubicin, dose level High, gender Mixed, regimen Once per week, route intravenous, sampling time 8-22 Week, study doses 0/0.3/0.6/1 mg.Kg-1; conditions: in vivo
# [8] = (§1) Urinary elimination of adriamycin following intravenous bolus adriamycin at 10 mg.Kg-1 dose in rat; assay type: ADME, organism-based; parameters: dose 10 mg.Kg-1, dosed compound id 2.46809e+06, dosed compound name Doxorubicin, route intravenous, sampling time 0-24 h; conditions: SD, urine, read-out: Compound recovery
# [9] = Detection of doxorubicin in heart following single intravenous doxorubicin at 10 mg.Kg-1 dose in female mouse bearing colon tumor; assay type: ADME, organism-based, BALB/c; parameters: dose 10 mg.Kg-1, dosed compound id 2.46809e+06, dosed compound name Doxorubicin, gender F, regimen Single, route intravenous, sampling time 48 h; conditions: in vivo
# [10] = Decrease in albumin due to persistent proteinuria following reference intravenous doxorubicin at 1 mg.Kg-1 per week in rat; assay type: toxicity, organism-based, SD, Serum; parameters: dose 1 mg.Kg-1, dosed compound id 2.46809e+06, dosed compound name Doxorubicin, dose level High, gender Mixed, regimen Once per week, route intravenous, sampling time 36 Week, study doses 0/0.3/0.6/1 mg.Kg-1; conditions: in vivo
# [11] = Incidence of persistent proteinuria following reference intravenous doxorubicin at 1 mg.Kg-1 per week in rat; assay type: toxicity, organism-based, SD; parameters: dose 1 mg.Kg-1, dosed compound id 2.46809e+06, dosed compound name Doxorubicin, dose level High, gender Mixed, regimen Once per week, route intravenous, sampling time 36 Week, study doses 0/0.3/0.6/1 mg.Kg-1; conditions: in vivo
# [12] = Terminal half-life of doxorubicin following intravenous doxorubicin at 1.27 mg.Kg-1 dose in dog; assay type: ADME, organism-based, Canis lupus familiaris, Beagle, Plasma; parameters: dose 1.27 mg.Kg-1, dosed compound id 2.46809e+06, dosed compound name Doxorubicin, route intravenous; conditions: in vivo
# [13] = as §1; assay type: ADME, organism-based; parameters: dose 10 mg.Kg-1, dosed compound id 2.46809e+06, dosed compound name Doxorubicin, route intravenous, sampling time 0-60 h; conditions: SD, urine, read-out: Compound recovery
# [14] = Detection of doxorubicin in plasma following single intravenous doxorubicin at 10 mg.Kg-1 dose in female mouse bearing colon tumor; assay type: ADME, organism-based, BALB/c; parameters: dose 10 mg.Kg-1, dosed compound id 2.46809e+06, dosed compound name Doxorubicin, gender F, regimen Single, route intravenous, sampling time 48 h; conditions: in vivo
# [15] = Volume of distribution of adriamycin following intravenous adriamycin at 1.27 mg.Kg-1 dose in dog; assay type: ADME, organism-based, Canis lupus familiaris; parameters: dose 1.27 mg.Kg-1, dosed compound id 2.46809e+06, dosed compound name Doxorubicin, route intravenous; conditions: Beagle, plasma
# [16] = as §1; assay type: ADME, organism-based; parameters: dose 10 mg.Kg-1, dosed compound id 2.46809e+06, dosed compound name Doxorubicin, route intravenous, sampling time 0-6 h; conditions: SD, urine, read-out: Compound recovery
# [17] = Decrease in leukocytes observed following reference intravenous doxorubicin at 1 mg.Kg-1 per week in rat; assay type: toxicity, organism-based, SD, Blood; parameters: dose 1 mg.Kg-1, dosed compound id 2.46809e+06, dosed compound name Doxorubicin, dose level High, gender Mixed, regimen Once per week, route intravenous, sampling time 36 Week, study doses 0/0.3/0.6/1 mg.Kg-1; conditions: in vivo
# in vivo [18] = conditions: female, BALB/c, mouse, tumor, iv, 10 mg/kg
# [19] = Renal clearance of doxorubicin following doxorubicin at 60 mg.m-2 dose in cancer patients; assay type: ADME, organism-based, Kidney; conditions: human, in vivo, iv, read-out: Renal clearance (converted)
# [20] = Mean terminal half-life of doxorubicin following intravenous doxorubicin at 60 mg.m-2 dose in cancer patients; conditions: human, plasma
# [21] = AUC values (0-48 h) of doxorubicin in heart following single intravenous doxorubicin at 10 mg.Kg-1 dose in female mouse bearing colon tumor; assay type: ADME, organism-based, BALB/c; parameters: time < 48 hr, dose 10 mg.Kg-1, dosed compound id 2.46809e+06, dosed compound name Doxorubicin, gender F, regimen Single, route intravenous, sampling time 48 h; conditions: in vivo
# [22] = AUC values (0-48 h) of doxorubicin in plasma following single intravenous doxorubicin at 10 mg.Kg-1 dose in female mouse bearing colon tumor; assay type: ADME, organism-based, BALB/c; parameters: time < 48 hr, dose 10 mg.Kg-1, dosed compound id 2.46809e+06, dosed compound name Doxorubicin, gender F, regimen Single, route intravenous, sampling time 48 h; conditions: in vivo
# [23] = Mortality occurred following reference intravenous doxorubicin at 1 mg.Kg-1 per week in rat; assay type: toxicity, organism-based, SD; parameters: dose 1 mg.Kg-1, dosed compound id 2.46809e+06, dosed compound name Doxorubicin, dose level High, gender Mixed, regimen Once per week, route intravenous, sampling time 17 Week, study doses 0/0.3/0.6/1 mg.Kg-1; conditions: in vivo
# in vivo [24] = conditions: Beagle, dog, plasma, iv, 1.27 mg/kg
# in vivo [25] = conditions: female, BALB/c, mouse, heart, iv, 10 mg/kg
# [26] = Increase in serum triglycerides level following reference intravenous doxorubicin at 1 mg.Kg-1 per week in rat; assay type: toxicity, organism-based, SD; parameters: dose 1 mg.Kg-1, dosed compound id 2.46809e+06, dosed compound name Doxorubicin, dose level High, gender Mixed, regimen Once per week, route intravenous, sampling time 8-22 Week, study doses 0/0.3/0.6/1 mg.Kg-1; conditions: in vivo
# [27] = Mean AUC of doxorubicin following intravenous doxorubicin at 60 mg.m-2 dose in cancer patients; assay type: ADME, organism-based; conditions: human, plasma
# [28] = Elimination of doxorubicin following doxorubicin at 60 mg.m-2 dose in cancer patients; assay type: ADME, organism-based, Plasma; conditions: human, in vivo, iv
# [29] = Detection of doxorubicin in tumor following single intravenous doxorubicin at 10 mg.Kg-1 dose in female mouse bearing colon tumor; assay type: ADME, organism-based, BALB/c, Neoplasm; parameters: dose 10 mg.Kg-1, dosed compound id 2.46809e+06, dosed compound name Doxorubicin, gender F, regimen Single, route intravenous, sampling time 48 h; conditions: in vivo
# [30] = Increase in serum total cholesterol level following reference intravenous doxorubicin at 1 mg.Kg-1 per week in rat; assay type: toxicity, organism-based, SD; parameters: dose 1 mg.Kg-1, dosed compound id 2.46809e+06, dosed compound name Doxorubicin, dose level High, gender Mixed, regimen Once per week, route intravenous, sampling time 8-22 Week, study doses 0/0.3/0.6/1 mg.Kg-1; conditions: in vivo
# in vivo [31] = conditions: female, BALB/c, mouse, plasma, iv, 10 mg/kg
# Albumin, sequence (P02768 whole entry): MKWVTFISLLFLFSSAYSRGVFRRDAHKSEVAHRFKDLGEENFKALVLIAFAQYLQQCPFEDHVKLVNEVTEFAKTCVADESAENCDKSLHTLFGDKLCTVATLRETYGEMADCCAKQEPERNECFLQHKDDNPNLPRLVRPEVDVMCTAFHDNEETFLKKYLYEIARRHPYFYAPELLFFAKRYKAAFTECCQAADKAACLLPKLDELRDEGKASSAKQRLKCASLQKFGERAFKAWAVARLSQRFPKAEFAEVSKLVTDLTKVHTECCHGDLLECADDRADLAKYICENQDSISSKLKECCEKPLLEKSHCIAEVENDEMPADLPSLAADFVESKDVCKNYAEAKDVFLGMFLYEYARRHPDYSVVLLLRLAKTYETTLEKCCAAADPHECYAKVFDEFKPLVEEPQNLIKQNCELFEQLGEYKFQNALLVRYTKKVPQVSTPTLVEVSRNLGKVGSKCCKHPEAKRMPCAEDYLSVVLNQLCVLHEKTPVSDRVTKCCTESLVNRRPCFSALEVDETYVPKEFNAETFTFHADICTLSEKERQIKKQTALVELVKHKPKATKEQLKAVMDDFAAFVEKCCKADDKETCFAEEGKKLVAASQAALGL
smiles,measurement,setting,value
COc1cccc2c1C(=O)c1c(O)c3c(c(O)c1C2=O)C[C@@](O)(C(=O)CO)C[C@@H]3O[C@H]1C[C@H](N)[C@H](O)[C@H](C)O1 [DOXORUBICIN],fraction unbound,Albumin,0.38
same,AUC,[1],8700 nmol·min/g
same,Incidence,[2],OUTCOME = Observed
same,Vd,[3],33 L/kg
same,clearance,[4],950 mL/min
same,PPB,Homo sapiens,71%
same,clearance,[5],607 mL/min
same,dose excreted at 7 Day,[6],9%
same,PHOSLPD_CHANGE,[7],OUTCOME = Increased
same,dose excreted,[8],2.77%
same,Compound recovery,[9],OUTCOME = Observed
same,ALB_CHANGE,[10],OUTCOME = Decreased
same,Incidence,[11],OUTCOME = Observed
same,t1/2,[12],VALUE = Shorter than doxorubicin
same,dose excreted,[13],3.33%
same,Compound recovery,[14],OUTCOME = Observed
same,Vd,[15],19.1 L/kg
same,dose excreted,[16],2.08%
same,WBC_CHANGE,[17],45%
same,half-life,in vivo [18],32.1 h
same,CL renal,[19],76.7 mL/min
same,half-life,[20],48 h
same,AUC,[21],14100 nmol·min/g
same,AUC,[22],204.9 nmol·min/mL
same,Mortality,[23],"OUTCOME = Observed, N_AFFECTED = 9"
same,half-life,in vivo [24],5.4 min
same,half-life,in vivo [25],13.2 h
same,TRIG_CHANGE,[26],OUTCOME = Increased
same,AUC,[27],1970 ng·h/mL
same,Elimination,[28],OUTCOME = Observed
same,Compound recovery,[29],OUTCOME = Observed
same,CHOL_CHANGE,[30],OUTCOME = Increased
same,half-life,in vivo [31],49.5 h
